The source of these data is US9040528B2, “Chemical compounds 542” (AstraZeneca AB, priority 2008, dated 2015).

What is called IC50 is the point on the concentration scale where inhibition reaches its midpoint.

One test has as its target Escherichia coli DNA gyrase A/B tetramer (Escherichia coli (strain K12), UniProt P0AES4+P0AES6). Put plainly: DNA gyrase supercoiling activity fluorescence polarisation assay.
Conditions: not given
It is filed as biochemical. As to the method: DNA Gyrase Supercoiling Activity Fluorescence Polarisation Assay
The supercoiling reactions may be quenched by the addition of 10 microliters/well of 40 nM oligodeoxynucleotide probe in 3× triplex-forming buffer consisting of 150 mM NaCl, and 150 mM sodium acetate at pH 3.5. The oligodeoxynucleotide probe may be 5′-BODIPY-FL-labeled […]. After 60 minutes, the fluorescence anisotropy of the BODIPY-FL may be measured in a Tecan Ultra plate reader, using 485 nm excitation and 535 nm emission filters equipped with polarizers. The IC50 may be determined by nonlinear regression using two control reactions. The first contains no test compound but 0.8% DMSO (100% activity) while the second control reaction contains 5 μM Ciprofloxacin and 0.8% DMSO (0% activity).
(Polarisation of emitted light reports the rotation of a fluorescent probe.)
In turn, `Cc1nnsc1-c1noc2c(F)c3c(cc12)CC1(C(=O)NC(=O)NC1=O)[C@H]1[C@H](C)O[C@H](C)CN31` (racemic) [Example 72, (2R,4S,4aS)-rel-11-fluoro-2,4-dimethyl-8-(4-methyl-1,2,3-thiadiazol-5-yl)-1,2,4,4a-tetrahydro-2′H,6H-spiro[1,4-oxazino[4,3-a][1,2]oxazolo[4,5-g]quinoline-5,5′-pyrimidine]-2′,4′,6′(1′H,3′H)-trione] had an IC50 of 900 nM.

Molecule `Cc1noc2c(F)c3c(cc12)CC1(C(=O)NC(=O)NC1=O)[C@H]1[C@H](C)O[C@H](C)CN31` (relative stereo) [Example 2, (2R,4S,4aS)-rel-11-fluoro-2,4,8-trimethyl-1,2,4,4a-tetrahydro-2′H,6H-spiro[isoxazolo[4,5-g][1,4]oxazino[4,3-a]quinoline-5,5′-pyrimidine]-2′,4′,6′(1′H,3′H)-trione] came in with an IC50 of 400 nM.

Still in this test, the particulars now being: 5 nM enzyme, relaxed plasmid, 0.3 mM ATP, ambient temperature; read-out: E. coli DNA gyrase supercoiling IC50.
For the molecule `C[C@@H]1CN2c3c(cc4c(-c5nc(C(=O)N(C)C)cs5)noc4c3F)CC3(C(=O)NC(=O)NC3=O)[C@H]2[C@H](C)O1` (racemic) [Example 86, 2-[(2R,4S,4 aS)-rel-11-fluoro-2,4-dimethyl-2′,4′,6′-trioxo-1,1′,2,3′,4,4′,4a,6′-octahydro-2′H,6H-spiro[1,4-oxazino[4,3-a][1,2]oxazolo[4,5-g]quinoline-5,5′-pyrimidin]-8-yl]-N,N-dimethyl-1,3-thiazole-4-carboxamide], the IC50 amounted to 5000 nM.

Turning to `C[C@@H]1CN2c3c(cc4c(C(F)(F)F)noc4c3F)CC3(C(=O)NC(=O)NC3=O)[C@H]2[C@H](C)O1` (racemic) [Example 92, (2R,4 S,4 aS)-rel-11-fluoro-2,4-dimethyl-8-(trifluoromethyl)-2,4,4a,6-tetrahydro-1H,1′H-spiro[isoxazolo[4,5-g][1,4]oxazino[4,3-a]quinoline-5,5′-pyrimidine]-2′,4′,6′(3′H)-trione], the IC50 was determined as 1400 nM.

In the case of `C[C@@H]1CN2c3c(cc4c(C(F)F)noc4c3F)CC3(C(=O)NC(=O)NC3=O)[C@H]2[C@H](C)O1` (racemic) [Example 93, (2R,4S,4 aS)-rel-8-(difluoromethyl)-11-fluoro-2,4-dimethyl-2,4,4a,6-tetrahydro-1H,1′H-spiro[isoxazolo[4,5-g][1,4]oxazino[4,3-a]quinoline-5,5′-pyrimidine]-2′,4′,6′(3′H)-trione], the IC50 worked out at 700 nM.

In the case of `C[C@@H]1CN2c3c(cc4c(C(=O)NCC(F)F)noc4c3F)CC3(C(=O)NC(=O)NC3=O)[C@H]2[C@H](C)O1` (racemic) [Example 94, (2R,4 S,4 aS)-rel-N-(2,2-difluoroethyl)-11-fluoro-2,4-dimethyl-2′,4′,6′-trioxo-2,2′,3′,4,4a,4′,6,6′-octahydro-1H,1′H-spiro[isoxazolo[4,5-g][1,4]oxazino[4,3-a]quinoline-5,5′-pyrimidine]-8-carboxamide], the IC50 came out at 1600 nM.

For the molecule `C[C@@H]1CN2c3c(cc4c(-c5cnccn5)noc4c3Cl)CC3(C(=O)NC(=O)NC3=O)[C@H]2[C@H](C)O1` (racemic) [Example 120, (2R,4 S,4 aS)-rel-11-chloro-2,4-dimethyl-8-(pyrazin-2-yl)-2,4,4a,6-tetrahydro-1H,1′H-spiro[isoxazolo[4,5-g][1,4]oxazino[4,3-a]quinoline-5,5′-pyrimidine]-2′,4′,6′(3′H)-trione], the IC50 came out at 200 nM.

As for `CCNC(=O)c1noc2c(F)c3c(cc12)CC1(C(=O)NC(=O)NC1=O)[C@H]1[C@H](C)O[C@H](C)CN31` (racemic) [Example 138, (2R,4 S,4 aS)-rel-N-ethyl-11-fluoro-2,4-dimethyl-2′,4′,6′-trioxo-2,2′,3′,4,4a,4′,6,6′-octahydro-1H,1′H-spiro[isoxazolo[4,5-g][1,4]oxazino[4,3-a]quinoline-5,5′-pyrimidine]-8-carboxamide], the IC50 worked out at 1700 nM.

`C[C@@H]1CN2c3c(cc4c(C(=O)N5CCC(F)(F)C5)noc4c3F)CC3(C(=O)NC(=O)NC3=O)[C@H]2[C@H](C)O1` (racemic) [Example 158, (2R,4 S,4 aS)-rel-8-(3,3-difluoropyrrolidine-1-carbonyl)-11-fluoro-2,4-dimethyl-2,4,4a,6-tetrahydro-1H,1′H-spiro[isoxazolo[4,5-g][1,4]oxazino[4,3-a]quinoline-5,5′-pyrimidine]-2′,4′,6′(3′H)-trione]: the IC50 was determined as 1400 nM.

On to `C[C@@H]1CN2c3c(cc4c(C(=O)NCc5ccnn5C)noc4c3F)CC3(C(=O)NC(=O)NC3=O)[C@H]2[C@H](C)O1` (racemic) [Example 162, (2R,4 S,4 aS)-rel-11-fluoro-2,4-dimethyl-N-((1-methyl-1H-pyrazol-5-yl)methyl)-2′,4′,6′-trioxo-2,2′,3′,4,4a,4′,6,6′-octahydro-1H,1′H-spiro[isoxazolo[4,5-g][1,4]oxazino[4,3-a]quinoline-5,5′-pyrimidine]-8-carboxamide], for which the IC50 came out at 2100 nM.

Take `C[C@@H]1CN2c3c(cc4c(N)noc4c3F)CC3(C(=O)NC(=O)NC3=O)[C@H]2[C@H](C)O1` (relative stereo) [Example 1, (2R,4S,4aS)-rel-8-amino-11-fluoro-2,4-dimethyl-1,2,4,4a-tetrahydro-2′H,6H-spiro[isoxazolo[4,5-g][1,4]oxazino[4,3-a]quinoline-5,5′-pyrimidine]-2′,4′,6′(1′H,3′H)-trione]: the IC50 was 500 nM.

For `C[C@@H]1CN2c3c(cc4c(-c5ccccc5)noc4c3F)CC3(C(=O)NC(=O)NC3=O)[C@H]2[C@H](C)O1` (relative stereo) [Example 3, (2R,4S,4aS)-rel-11-fluoro-2,4-dimethyl-8-phenyl-1,2,4,4a-tetrahydro-2′H,6H-spiro[isoxazolo[4,5-g][1,4]oxazino[4,3-a]quinoline-5,5′-pyrimidine]-2′,4′,6′(1′H,3′H)-trione], the IC50 was 400 nM.

As for `C[C@@H]1CN2c3c(cc4c(C5CC5)noc4c3F)CC3(C(=O)NC(=O)NC3=O)[C@H]2[C@H](C)O1` (relative stereo) [Example 4, (2R,4S,4aS)-rel-8-cyclopropyl-11-fluoro-2,4-dimethyl-1,2,4,4a-tetrahydro-2′H,6H-spiro[isoxazolo[4,5-g][1,4]oxazino[4,3-a]quinoline-5,5′-pyrimidine]-2′,4′,6′(1′H,3′H)-trione], the IC50 amounted to 300 nM.

Regarding `C[C@@H]1CN2c3c(cc4c(-c5ccccn5)noc4c3F)CC3(C(=O)NC(=O)NC3=O)[C@H]2[C@H](C)O1` (relative stereo) [Example 5, (2R,4S,4aS)-rel-11-fluoro-2,4-dimethyl-8-pyridin-2-yl-1,2,4,4a-tetrahydro-2′H,6H-spiro[isoxazolo[4,5-g][1,4]oxazino[4,3-a]quinoline-5,5′-pyrimidine]-2′,4′,6′(1′H,3′H)-trione], the IC50 is 200 nM.

For `CC(=O)Nc1noc2c(F)c3c(cc12)CC1(C(=O)NC(=O)NC1=O)[C@H]1[C@H](C)O[C@H](C)CN31` (relative stereo) [Example 6, N-[(2R,4S,4aS)-rel-11-fluoro-2,4-dimethyl-2′,4′,6′-trioxo-1,1′,2,3′,4,4′,4a,6′-octahydro-2′H,6H-spiro[isoxazolo[4,5-g][1,4]oxazino[4,3-a]quinoline-5,5′-pyrimidin]-8-yl]acetamide], the IC50 worked out at 800 nM.

Consider `Cc1noc2c(Cl)c3c(cc12)CC1(C(=O)NC(=O)NC1=O)[C@H]1[C@H](C)O[C@H](C)CN31` (relative stereo) [Example 7, (2R,4S,4aS)-rel-11-chloro-2,4,8-trimethyl-1,2,4,4a-tetrahydro-2′H,6H-spiro[1,4-oxazino[4,3-a][1,2]oxazolo[4,5-g]quinoline-5,5′-pyrimidine]-2′,4′,6′(1′H,3′H)-trione], for which the IC50 was found to be 400 nM.

Consider `CC(=O)N1CCN(c2noc3c(F)c4c(cc23)CC2(C(=O)NC(=O)NC2=O)[C@H]2[C@H](C)O[C@H](C)CN42)CC1` (relative stereo) [Example 8, (2R,4S,4aS)-rel-8-(4-acetylpiperazin-1-yl)-11-fluoro-2,4-dimethyl-1,2,4,4a-tetrahydro-2′H,6H-spiro[isoxazolo[4,5-g][1,4]oxazino[4,3-a]quinoline-5,5′-pyrimidine]-2′,4′,6′(1′H,3′H)-trione], for which the IC50 turned out to be 8300 nM.

As for `C[C@@H]1CN2c3c(cc4c(NCc5nccs5)noc4c3F)CC3(C(=O)NC(=O)NC3=O)[C@H]2[C@H](C)O1` (relative stereo) [Example 10, (2R,4S,4aS)-rel-11-fluoro-2,4-dimethyl-8-[(1,3-thiazol-2-ylmethyl)amino]-1,2,4,4a-tetrahydro-2′H,6H-spiro[1,4-oxazino[4,3-a][1,2]oxazolo[4,5-g]quinoline-5,5′-pyrimidine]-2′,4′,6′(1′H,3′H)-trione], the IC50 came to 1900 nM.

As for `C[C@@H]1CN2c3c(cc4c(NCc5c[nH]cn5)noc4c3F)CC3(C(=O)NC(=O)NC3=O)[C@H]2[C@H](C)O1` (relative stereo) [Example 11, (2R,4S,4aS)-rel-11-fluoro-8-[(1H-imidazol-4-ylmethyl)amino]-2,4-dimethyl-1,2,4,4a-tetrahydro-2′H,6H-spiro[1,4-oxazino[4,3-a][1,2]oxazolo[4,5-g]quinoline-5,5′-pyrimidine]-2′,4′,6′(1′H,3′H)-trione], the IC50 came out at 800 nM.

As to `C[C@@H]1CN2c3c(cc4c(NCc5cnn(C)c5)noc4c3F)CC3(C(=O)NC(=O)NC3=O)[C@H]2[C@H](C)O1` (relative stereo) [Example 12, (2R,4S,4aS)-rel-11-fluoro-2,4-dimethyl-8-{[(1-methyl-1H-pyrazol-4-yl)methyl]amino}-1,2,4,4a-tetrahydro-2′H,6H-spiro[1,4-oxazino[4,3-a][1,2]oxazolo[4,5-g]quinoline-5,5′-pyrimidine]-2′,4′,6′(1′H,3′H)-trione], the IC50 is 1200 nM.
